# Data from patent US5089479A, “Adhesion of Mycoplasma pneumoniae and Mycoplasma hominus to sulfatide” (priority 1988, dated 1992).
# Entries after “also recorded” stand apart in the source; their conditions may differ. Where a name gives a salt, the structure may show the parent alone.
# Columns and labels:
# Parameters in all cases: species or system Mycoplasma pneumoniae strain M129
# [1] = tested on: M. pneumoniae binding to sulfatide; assay: Inhibition of M. pneumoniae binding to sulfatide adsorbed on plastic; settings: for inhibition of binding to sulfatide at 100 μg/ml (in words): sulfatide in microtiter plates
# Protocol: (§1) Virulent M. pneumoniae strain M129, passage 5-15, were grown and metabolically labelled with [^3 H]palmitic acid, 12-17 Ci/mole, as described by Chandler et al. in Infect. Immun. 37: 942, 1982. The organisms were passed four times through a 26 gauge needle and suspended to approximately 10^7 cpm/ml of degassed RPMI 1640 medium containing 1% bovine serum albumin and 25 mM HEPES, pH 7.3.
# (§2) The binding of M. pneumoniae to purified glycolipids immobilized in microtiter plates was measured as described by Krivan et al. in Proc. Natl. Acad. Sci., op. cit. Purified glycolipids were serially diluted in 25 μl of methanol containing 0.1 μg each of the auxiliary lipids cholesterol and phosphatidylcholine. After the solutions were dried by evaporation, the wells were filled with TBS-BSA, emptied after one hour, rinsed with RPMI-BSA, and incubated with 25 μl of [^3 H]-M. pneumoniae, approximately 10^7 cpm/ml RPMI-BSA. After incubation for two hours at 37° C., unless otherwise stated, the wells were washed five times with saline and bound M. pneumoniae was quantified by scintillation counting in Aquasol. For inhibition studies, various polysaccharides were serially diluted in […] of [^3 H]-M. pneumoniae.
# To obtain the results shown in FIG. 4, polysaccharides were serially diluted in 25 μl of RPMI-BSA in microtiter wells previously coated with 1 μg of purified sulfatide. Binding was determined after incubation of two hours at 37° C. with 25 μl of [^3 H]-M. pneumoniae with the indicated concentration of dextran ( .circle. ) or dextran sulfate.
# M. pneumoniae [2] = assay: Mycoplasma overlay assay: binding of [3H]-M. pneumoniae to glycolipids on thin layer chromatograms; settings: for Binding (ability to bind M. pneumoniae): Table I, class by amount of lipid bound; for binding of M. pneumoniae to glycolipid (in words): thin layer chromatogram overlay
# Protocol: as §1
# M. pneumoniae were bound to glycolipids separated on thin-layer chromatograms as described in detail for other bacteria by Krivan et al., Proc. Natl. Acad. Sci. 85: 6157-6161, 1988, and Krivan et al., Arch. Biochem. Biophys. 260:493-496, 1988. Briefly, glycolipids were separated by thin-layer chromatography on aluminum-backed silica gel high-performance plates developed with chlooform:methanol:0.25% CaCl2 in water (60:35:8). After chromatography, the plates were coated with 0.1% polyisobutylmethacrylate, soaked in 0.05 M Tris-HCl, pH 7.6, containing […] sodium chloride, 5 mM CaCl2, 0.2 mM phenylmethane-sulfonyl fluoride, and 1% bovine serum albumin (TBS-BSA) and incubated for three hours at 25° C. with 60 μl/cm^2 of [^3 H]-labelled M. pneumoniae, approximately 10^7 cpm/ml of RPMI-BSA. The plates were gently washed five times in 0.01 M sodium phosphate, pH 7.2, containing 0.15 M sodium chloride (PBS) to remove unbound organisms, dried, and exposed for 24 hours to Ultrofilm ^3 H (2208-190) high speed film.
# To obtain the results shown in FIG. 1, glycolipids were chromatographed on aluminum-backed silica gel HPTLC plates developed in chloroform/methanol/0.25% CaCl2 in water, 60:35:8. The plates were coated with plastic, soaked in Tris-BSA, and incubated for three hours at 25° C. with [^3 H]-palmitate-labelled M. pneumoniae suspended in RPMI 1640 containing 1% BSA and 25 mM HEPES, pH 7.3, as described above (Panel A), or sprayed with orcinol reagent to identify glycolipids (Panel B). Lane a, acidic glycolipid standards sulfatide (0.5 μg), GM3 (2 μg), GM2 (2 μg), GD1a (2 μg), GD1b (2 μg), GT1b (2 μg); lane b, neutral standards galactosyl ceramide (4 μg), lactosylceramide (4 μg), globotriaosylceramide (2 μg), c2(0.5 μg). and c3 (o.1 μg); lane d, seminolipid (2 μg); lane e, cholesterol 3 -sulfate (2 μg); lane f, human trachea acidic glycolipids from 100 mg wet weight […]; lane h, α2-3sialylparagloboside (2 μg); lane 1, I-active monosialylganglioside from bovine erythrocytes (2 μg).
# M. pneumoniae [3] = assay: Solid-phase binding of [3H]-M. pneumoniae to purified glycolipids immobilized in microtiter plates; settings: for binding of M. pneumoniae to immobilized lipid (in words): microtiter plate, up to 10 μg per well
# Protocol: as §1, §2
# To obtain the results shown in FIG. 2, lipids in […] each of the auxiliary lipids cholesterol and phosphatidylcholine were evaporated in flat bottom wells of polyvinylchloride microtiter plates. The wells were blocked with 1% albumin for one hour, washed twice with RPMI-BSA, and incubated at 25° C. with 25 μl of [^3 H]-M. pneumoniae, approximately […]. After two hours, the wells were washed five times with saline, cut from the plate, and bound radioactivity was quantified in a scintillation counter. In control experiments, organisms were incubated with auxiliary lipids only to correct for nonspecific binding, typically <1% of the total radioactivity added. M. pneumoniae binding was determined in RPMI-BSA for sulfatide ( .circle. ), lactosylceramide, paragloboside, and cholesterol sulfate, ceramide trihexoside, globoside, GM1, GM2, or GM3 ( .largecircle.).
# Binding of [^3 H]-M. pneumoniae was determined in RPMI-BSA for two hours at 4° C., 25° C. ( .circle. ), 37° C., and at 37° C. in BSA without RPMI (Δ).
# [4] = tested on: M. pneumoniae binding to laminin; assay: Inhibition of M. pneumoniae binding to laminin adsorbed on plastic
# Protocol: Glycoproteins dissolved in 0.01 M sodium phosphate buffer, pH 7.4, containing 150 mM NaCl, 1 mM CaCl2, and 0.01% NaN3 were adsorbed onto plastic polyvinylchloride […] microtiter plates by incubation for 16 hours at 4° C. The unbound proteins were removed, and the wells were filled with tris-BSA and incubated for 30 minutes at room temperature. The wells were rinsed with RPMI1640 containing 25 mM HEPES, pH 7.3, and 1% bovine serum albumin. M. pneumoniae strain M129 labelled with [^3 H]-palmitate were dispersed in RPMI-BSA by passing four times through a 26 gauge needle, and 50 μl of the suspension was applied to the wells. After incubation for 60 minutes at 37° C., the wells were washed five times with saline and the labelled M. pneumoniae bound to the proteins were quantified by scintillation counting in Aquasol.
# For inhibition studies, sugars in 25 μl of RPMI-BSA were added to wells coated with 10 μg/ml laminin followed by 25 μl of [^3 H]-M. pneumoniae. Binding was determined to both laminin-coated and uncoated wells in triplicate at each inhibitor concentration and in the absence of inhibitor. In some experiments, the adsorbed proteins were pretreated with neuraminidase. After adsorption of the proteins and incubation in tris-BSA, the wells were rinsed three times with 50 mM sodium acetate, pH 5.5, containing 150 mM NaCl, 5 mM CaCl2, 1 mg/ml bovine serum albumin, and 1 mM phenylmethanesulfonyl fluoride. The wells were incubated with 0.05 units/ml neuraminidase in the same buffer or with buffer without enzyme overnight at 20° C. The wells were rinsed three times with tris-BSA, and M. pneumoniae binding was determined as described above.
molecule,measurement,setting,value
colominic acid,inhibition of binding to sulfatide at 100 μg/ml (in words),[1],did not inhibit binding
Paragloboside,Binding (ability to bind M. pneumoniae),M. pneumoniae [2],+ (2-4 μg)
same,binding of M. pneumoniae to glycolipid (in words),M. pneumoniae [2],weakly
same,binding of M. pneumoniae to immobilized lipid (in words),M. pneumoniae [3],bound weakly
"CC(C)CCC[C@@H](C)[C@H]1CC[C@H]2[C@@H]3CC=C4C[C@@H](OS(=O)(=O)O)CC[C@]4(C)[C@H]3CC[C@]12C [cholesterol sulfate, cholesterol 3 -sulfate]",binding of M. pneumoniae to glycolipid (in words),M. pneumoniae [2],does not bind
same,binding of M. pneumoniae to immobilized lipid (in words),M. pneumoniae [3],no binding was detected
chondroitin sulfate,inhibition of binding to sulfatide at 100 μg/ml (in words),[1],did not inhibit binding
CC(=O)NC1C(O)CC(OCC2OC(OC3C(CO)OC(O)C(O)C3O)C(O)C(O)C2O)(C(=O)O)OC1C(O)C(O)CO (stereo not shown) [6'-sialyllactose],Binding % of control,"[4]; 5 mM inhibitor, laminin substrate, 60 min",54 % of control
same,"relative inhibitory activity, binding to laminin (in words)",[4]; compared with 3'-sialyllactose or other fetuin oligosaccharide fractions,at least ten-fold less active
same,IC50,"[4]; oligosaccharide concentrations as sialic acid, read-out: I.D.50, substrate laminin",> 5 mM
dextran,inhibition of binding to sulfatide (in words),[1]; sulfatide adsorbed on plastic,no effect
hyaluronate,inhibition of binding to sulfatide at 100 μg/ml (in words),[1],did not inhibit binding
heparin,inhibition of binding to sulfatide at 100 μg/ml (in words),[1],did not inhibit binding
Lactosylceramide [Lactosylcer (CDH)],Binding (ability to bind M. pneumoniae),M. pneumoniae [2],++ (0.5 to 2 μg)
same,binding of M. pneumoniae to glycolipid (in words),M. pneumoniae [2],weakly
same,binding of M. pneumoniae to glycolipid (in words),M. pneumoniae [2]; listed as lactosylderamide,binds to high amounts
same,binding of M. pneumoniae to immobilized lipid (in words),M. pneumoniae [3],bound weakly
galactosyl ceramide-I^3 -sulfate [Sulfatide],Binding (ability to bind M. pneumoniae),M. pneumoniae [2],+++ (positive binding to less than 0.5 μg)
same,binding of M. pneumoniae to glycolipid (in words),M. pneumoniae [2]; listed as galactosyl ceramide I^3 -sulfate,does not discriminate between galactosyl ceramide I^3 -sulfate and its unnatural 6-sulfate isomer
same,binding of M. pneumoniae to glycolipid (in words),M. pneumoniae [2]; listed as sulfatide,bound strongly; also recorded: bound avidly
same,amount of glycolipid detected by M. pneumoniae overlay,"M. pneumoniae [2]; thin layer chromatogram, lane C3",100 ng
same,binding activity at 4° C.,"M. pneumoniae [3]; 4° C., RPMI-BSA",almost completely abolished; also recorded: minimal
same,binding activity at 25° C. (relative to 37° C.),"M. pneumoniae [3]; 25° C., RPMI-BSA",about five times lower
same,amount of sulfatide required for half-maximum binding,"M. pneumoniae [3]; 37° C., RPMI-BSA",about 0.25 μg
same,binding in nutrient-deficient medium,"M. pneumoniae [3]; 37° C., Tris-BSA without RPMI",almost completely abolished; also recorded: bound poorly
same,binding in RPMI medium at 37° C.,"M. pneumoniae [3]; RPMI medium, 37° C. / physiological temperatures",maximal
same,binding of M. pneumoniae to immobilized lipid (in words),M. pneumoniae [3],good dose response; also recorded: bind to sulfatide adsorbed on plastic; also recorded: sensitive and dose-dependent
fucoidin,inhibition of binding to sulfatide at 100 μg/ml (in words),[1],did not inhibit binding
